According to patent US9802912B2, “Cyclic ortho ester fuel additive” (AIRBUS OPERATIONS LIMITED, priority 2013, dated 2017):

What was measured:
[1] = GC measurement of hydrolysis of triethyl orthoformate by water in Jet A-1; type: physicochemical
Experimental: The analyses were performed using an Agilent 5890 gas chromatograph equipped with a flame ionisation detector. The GC column used was of fused silica, HP-5MS, 30 m by 0.25 mm, with a helium flow rate of 1.5 mL/min. The temperature for the detector and injector was fixed at 250° C. The oven temperature used for the analysis was 80° C. for 4 minutes, then it was increased at 20° C./min to 240° C. and held for 2 minutes.
Jet A-1, obtained by Air BP (Batch number BIS/HAL/12/035K), was dried by storing it over 3 Å molecular sieve for at least 24 hours. Standards with different water concentrations were prepared by adding measured volumes of distilled water by SGE μL syringes to 20 ml of anhydrous Jet A-1, taking extra care to inject the water in the middle of the solvent. Each standard was prepared just before use and ultrasonicated for 5 minutes to ensure an equal distribution of water.
A reactant solution was prepared to enable a simple, one-step addition of all the necessary chemicals. […]
For each water standard, the relative peak area (RPA) of ethanol was calculated by dividing the ethanol peak area by the internal standard peak area. […]

[2] = 1H NMR kinetics of acid catalysed hydrolysis of TMOA in AcOH/AcONa buffers; type: physicochemical
Experimental: Five buffers with constant acetic acid (AcOH) concentration and different H^+ concentrations were made by varying the amount of sodium acetate (AcONa) added (see Table 1). As the ionic concentration of the solution has an impact on the rate constant of hydrolysis, sodium chloride was added to keep the ionic strength constant in all 5 buffers.
The reaction samples were prepared directly in 5 mm NMR tube by adding 15 μL of TMOA in 500 μL of acetone-d6. To start the reaction 100 μL of acetic acid/sodium acetate aqueous buffer was added. All chemicals were purchased at the highest level of purity from Sigma Aldrich. Acetone-D6 and TMOA were dried before each experiment by distilling from 3 Å molecular sieve under nitrogen. Sodium chloride and sodium acetate were dried by heating them at T=100° C. for 4 hours under vacuum.
A 300 MHz NMR spectrometer was used to follow the concentration of TMOA with time by acquiring nine sequential ^1H NMR spectra every 10 min (actual delay time=10.38 min). Presaturation solvent suppression technique was used to obscure the H2O signal. An external reference was used by adding to the NMR tube a sealed capillary tube with 3-(trimethylsilyl)-1-propanesulfonic acid sodium salt dissolved in D2O (concentration=0.1966 M).
The TMOA ^1H NMR spectrum consists of two singlets resonating at 3.15 and 1.33 ppm, assigned to the —OCH3 and —CH3 residues, respectively (integrating 3:1—FIG. 7). The relative peak area (RPA—proportional to concentration) was measured by comparing the —CH3 resonance with that of the external reference.
The approach adopted for determining kH+ and kHA, was to exploit the constancy of Ka (=1.75×10^−5 mol/L) whilst varying the numerators (i.e., [A^−] 2→0.1 and pH 5.07→3.74) and maintaining [HA] constant (i.e., 0.192 mol/L). As the overall rate of reaction (equation III) is a summation of both processes described by kH+ and kHA, the rate constant kobs is therefore proportional to the concentration of both associated and dissociated acids (equation IV). rate=kobs[R—C(OR)3] (III) kobs=kH+[H^+]+kHA[HA] (IV)
Given that [HA] is constant, expression IV becomes equivalent to that of a straight line and kH+ and kHA may be determined by plotting kobs vs [H^+]. To obtain kobs however, the rate equation integrated over time (Eq. V) must be used. In[R—C(OR)3]t—In[R—C(OR)3]0=−kobst (V)
^1H NMR spectroscopy is the technique of choice when studying processes which occur on this timescale. Our choice of HA was acetic acid (AcOH), and five buffered solutions with different H^+ concentration were prepared by varying the amount of sodium acetate (AcONa=A^−). For the study, we switched focus from the aldehyde derivative TEOF (5, Scheme 1) used for the proof of concept study to the faster reacting keto-derivative trimethyl orthoacetate (TMOA) 8, Scheme 2 where R=—CH3) for reasons of atom economy (20% lighter).
[H^+] may be plotted (FIG. 5) and a straight line fitted (y=35.464×+1.6×10^−3; R^2=0.993) from which values for the gradient of the slope and y-intercept afford kH+=35.5 min^−1 and, kHA=7.8×10^−3 min^−1 respectively. It is clear that the pathway catalysed by dissociated acid H^+ (specific acid catalysis—scheme 2) is approximately 4500 times faster than the pathway catalysed by undissociated AcOH, within the pH range studied here (3.7→5.0).

reaction with water, completion ([1]; Jet A-1, methane sulfonic acid, 30 minutes) [%] | reaction with water, complete ([1]; Jet A-1, no added acid catalyst, after 2 days) | Compound | Kobs ([2]; [AcOH]/[AcONa] 0.486, [H+] 8.51 × 10^−6 mol/L) [min⁻¹] | Kobs ([2]; [AcOH]/[AcONa] 1, [H+] 1.75 × 10^−5 mol/L) [min⁻¹] | Kobs ([2]; [AcOH]/[AcONa] 2.918, [H+] 5.11 × 10^−5 mol/L) [min⁻¹] | Kobs ([2]; [AcOH]/[AcONa] 4, [H+] 7.00 × 10^−5 mol/L) [min⁻¹] | Kobs ([2]; [AcOH]/[AcONa] 10.378, [H+] 1.82 × 10^−4 mol/L) [min⁻¹] | kHA (general acid catalysis, undissociated AcOH) ([2]; from y-intercept of kobs v. [H+], [HA] 0.192 mol/L) [min⁻¹] | kH+ (specific acid catalysis) ([2]; gradient of kobs v. [H+], pH 3.7-5.0) [min⁻¹] | rate of pathway catalysed by H+ relative to pathway catalysed by undissociated AcOH ([2]; pH 3.7-5.0)
100 | 60-75% | CCOC(OCC)OCC [compound 5, triethyl orthoformate] |  |  |  |  |  |  |  | 
 |  | COC(C)(OC)OC [TMOA, trimethyl orthoacetate] | 0.0016 | 0.0024 | 0.0036 | 0.0042 | 0.008 | 0.0078 | 35.5 | approximately 4500 times
